Source: PubChem BioAssay (NCI)
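The compound was tested at five concentrations on cells cultured in 96-well plates, with a 48-hour exposure period. Definition used: TGI = concentration required for complete inhibition of growth.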

Legend:
Assay in all cases: DTP human tumour cell line panel, 48 h
786-0 renal = test system: 786-0 renal
A549 NSCLC = test system: A549 NSCLC
BT-549 breast = test system: BT-549 breast
CAKI-1 renal = test system: CAKI-1 renal
KM12 colon = test system: KM12 colon
MDA-MB-231 breast = test system: MDA-MB-231 breast
NCI-H522 lung = test system: NCI-H522 lung
NCI/ADR-RES ovarian = test system: NCI/ADR-RES ovarian
OVCAR-8 ovarian = test system: OVCAR-8 ovarian
RPMI-8226 leukemia = test system: RPMI-8226 leukemia
SF-268 CNS = test system: SF-268 CNS
UACC-62 melanoma = test system: UACC-62 melanoma

Measured: TGI

O=C(O)CCC(C(=O)O)N1C(=O)c2ccccc2C1=O (centres undefined)
> 100 µM: all assays above

O=C1c2cc([N+](=O)[O-])cnc2S(=O)(=O)N1c1ccc(Br)cc1
> 100 µM: all assays above
